# Test results taken from patent US20170007610A1, “NOVEL HETEROBICYCLIC COMPOUNDS AS KAPPA OPIOID AGONISTS” (priority 2014, published 2017).
# Like-named read-outs stand apart in the source and are kept apart here.
# Assays:
# ICR mice [1] = assay: Assessment of CNS effects (spontaneous locomotion, sedation, catalepsy), threshold dose; format: in vivo; conditions: lowest dose which shows pharmacodynamic effect (locomotion, sedation, catalepsy), oral or i.v.
# Experimental: (§1) All the animal experiments were carried out in ICR mice, bred in-house. Animals were housed in groups of 6 animals per cage, for a week, in order to habituate them to vivarium conditions (25±4° C., 60-65% relative humidity, 12:12 h light: dark cycle, with lights on at 7.30 am). All the animal experiments were carried out according to the internationally valid guidelines following approval by the ‘Zydus Research Center animal ethical committee’.
# Assessment of CNS Effects of Test Compounds
# Test compounds were dissolved in normal saline injected by oral or i.v., routes in ICR mice tail vein. […] The dose is scaled down or up if pharmacodynamic effect is present or absent respectively.
# kappa opioid receptor [2] = biological target: T1, kappa opioid receptor (Mus musculus, UniProt P33534); assay: Ex-vivo KOR agonistic activity, electrically stimulated mouse vas deferens (MVD) model
# T1 construct: from tissue; host or cells: mouse vas deferens (male Swiss Albino mice)
# T1 sequence (P33534 whole entry): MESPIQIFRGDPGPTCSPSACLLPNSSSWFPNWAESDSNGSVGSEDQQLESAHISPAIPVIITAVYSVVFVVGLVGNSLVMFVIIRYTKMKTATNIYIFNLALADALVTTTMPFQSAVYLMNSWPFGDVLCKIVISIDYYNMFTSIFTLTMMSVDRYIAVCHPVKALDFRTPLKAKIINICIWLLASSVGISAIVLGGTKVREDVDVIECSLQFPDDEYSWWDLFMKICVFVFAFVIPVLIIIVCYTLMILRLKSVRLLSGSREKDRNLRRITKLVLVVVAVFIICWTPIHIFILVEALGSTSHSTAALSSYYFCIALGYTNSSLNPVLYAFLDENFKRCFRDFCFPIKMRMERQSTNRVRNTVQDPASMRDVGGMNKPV
# Experimental: a) Ex-Vivo KOR Agonistic Activity Testing, Using Electrically Stimulated Mouse Vas Deferens (MVD) Model:
# Ex-vivo, the kappa opioid receptor agonistic activity of test compounds were tested on the electrically stimulated mouse vas deferens (MVD) preparations (Henderson et al., Br. J. Pharmacol., 46, 764-766, 1972; Portoghese et al., Life Sci. 36, 801-805, 1985) and IC50 were determined. In general, vas deferentia were taken from male Swiss Albino mice (30-40 g) and suspended in 8 ml organ baths, at 31° C., containing modified Krebs-Henseleit solution, without magnesium sulphate. Each vas deferens was equilibrated for 45 min at 2.6 mN tension and then stimulated at supramaximal voltage with five 1 ms pulses, at a frequency of 0.1 Hz. Concentration-response curves were determined by cumulative dosing. Inhibitory Concentration, 50% (IC50) values were determined by Sigmoidal dose-response (variable slope) equation, using Prizm v 6.01. The kappa opioid receptor specificity was determined by rightward shift in concentration-response curves in presence of 1 nM norbinaltorphimine (norBNI), a selective kappa opioid receptor antagonist.
# kappa opioid receptor [3] = biological target: T2, kappa opioid receptor (Homo sapiens, UniProt P41145); assay: Invitro KOR agonistic activity, cAMP based functional assay; format: cell-based
# T2 construct: grown in complete Ham's F-12 medium
# T2 sequence (P41145 whole entry): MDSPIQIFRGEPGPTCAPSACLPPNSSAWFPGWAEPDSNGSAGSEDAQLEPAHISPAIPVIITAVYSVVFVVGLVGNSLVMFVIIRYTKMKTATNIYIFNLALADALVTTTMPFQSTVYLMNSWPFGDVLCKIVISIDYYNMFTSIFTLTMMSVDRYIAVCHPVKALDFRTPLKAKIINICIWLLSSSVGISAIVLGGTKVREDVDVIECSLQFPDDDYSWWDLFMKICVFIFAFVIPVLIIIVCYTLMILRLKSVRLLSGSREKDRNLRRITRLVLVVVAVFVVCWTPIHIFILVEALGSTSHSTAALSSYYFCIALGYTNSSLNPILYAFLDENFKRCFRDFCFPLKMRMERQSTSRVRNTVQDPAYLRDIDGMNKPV
# ICR mice [4] = assay: Acetic acid-induced writhing model; format: in vivo; conditions: acetic acid induced pain model, oral or i.v. administration, writhes for 15 min; for ED50: Mus musculus, 0.25 h, read-out: In-vivo ED50
# Experimental: as §1
# Following oral or i.v. administration of test compounds, mice are rested for 5 min before i.p. injection with 10 ml/kg of 0.6% v/v acetic acid in normal saline. […] A writhe is defined as a constriction of the abdominal area, often with extension of the hind legs. Percentage maximum possible effect (MPE) was calculated as below:
# % MPE=100−[(No. of writhes in treated mice/No. of writhes in vehicle treated mice)]×100
# ED50 dose is determined using GraphPad Prism.
# [5] = electrically stimulated mouse vas deferens preparation, cumulative dosing, read-out: Ex-vivo IC50
# [6] = cAMP direct ELISA, forskolin 20 μM, agonist 20 minutes, read-out: In-vitro EC50
Compound,IC50 (kappa opioid receptor [2]),EC50 (kappa opioid receptor [3]),also measured
"CN(C(=O)COc1ccc(NS(C)(=O)=O)c2cccnc12)[C@H](CN1CC[C@H](O)C1)c1ccccc1 [Compound 6, N-((S)-2-((S)-3-hydroxypyrrolidin-1-yl)-1-phenylethyl)-N-methyl-2-((5-methylsulfonamido)quinolin-8-yloxy)acetamide]",349 nM,0.94 nM,CNS TD (ICR mice [1]): 30 mg/kg; ED50 (ICR mice [4]): 1.1 mg/kg
"CN(C(=O)COc1ccc(NS(C)(=O)=O)c2c1CCCN2)[C@H](CN1CC[C@H](O)C1)c1ccccc1 [Compound 15, N-((S)-2-((S)-3-hydroxypyrrolidin-1-yl)-1-phenylethyl)-N-methyl-2-((8-(methylsulfonamido)-1,2,3,4-tetrahydroquinolin-5-yl)oxy)acetamide]",0.9 nM,0.003 nM,CNS TD (ICR mice [1]): 10 mg/kg; ED50 (ICR mice [4]): 0.92 mg/kg
"CN(C(=O)COc1ccc2c(c1)CCCN2S(C)(=O)=O)[C@H](CN1CC[C@H](O)C1)c1ccccc1 [Compound 20, N-((S)-2-((S)-3-hydroxypyrrolidin-1-yl)-1-phenylethyl)-N-methyl-2-((1-(methylsulfonyl)-1,2,3,4-tetrahydroquinolin-6-yl)oxy)acetamide]",1740 nM,2.12 nM,CNS TD (ICR mice [1]): 30 mg/kg; ED50 (ICR mice [4]): 1.8 mg/kg
"CN1CCCc2c(OCC(=O)N(C)[C@H](CN3CC[C@H](O)C3)c3ccccc3)ccc(NS(C)(=O)=O)c21 [Compound 22, N-((S)-2-((S)-3-hydroxypyrrolidin-1-yl)-1-phenylethyl)-N-methyl-2-((1-methyl-8-(methylsulfonamido)-1,2,3,4-tetrahydroquinolin-5-yl)oxy)acetamide]",8.1 nM,0.008 nM,CNS TD (ICR mice [1]): 60 mg/kg; ED50 (ICR mice [4]): 2.5 mg/kg
"COCC(=O)Nc1ccc(OCC(=O)N(C)[C@H](CN2CC[C@H](O)C2)c2ccccc2)c2cccnc12 [Compound 35, N-((S)-2-((S)-3-hydroxypyrrolidin-1-yl)-1-phenylethyl)-2-((8-(2-methoxyacetamido)quinolin-5-yl)oxy)-N-methylacetamide]",48 nM,0.06 nM,
CN(C(=O)COc1ccc(NS(=O)(=O)N2CCCC2)c2ncccc12)[C@H](CN1CC[C@H](O)C1)c1ccccc1 [Compound 38],7.4 nM,0.95 nM,
"CN(C(=O)COc1ccc(NC(=N)N)c2ncccc12)[C@H](CN1CC[C@H](O)C1)c1ccccc1 [Compound 40, 2-((8-guanidinoquinolin-5-yl)oxy)-N-((S)-2-((S)-3-hydroxypyrrolidin-1-yl)-1-phenylethyl)-N-methylacetamide]",1.1 nM,0.007 nM,
CN(C(=O)COc1ccc(NCCO)c2ncccc12)[C@H](CN1CC[C@H](O)C1)c1ccccc1 [Compound 41],254 nM,1.32 nM,
"CN(C(=O)COc1ccc(NS(C)(=O)=O)c2ncccc12)[C@H](CN1CC[C@H](O)C1)c1cccc([N+](=O)[O-])c1 [Compound 42, N-((S)-2-((S)-3-hydroxypyrrolidin-1-yl)-1-(3-nitrophenyl)ethyl)-N-methyl-2-((8-(methylsulfonamido)quinolin-5-yl)oxy) acetamide]",50 nM,0.044 nM,
"CC(=O)Nc1cccc([C@@H](CN2CC[C@H](O)C2)N(C)C(=O)COc2ccc(NS(C)(=O)=O)c3ncccc23)c1 [Compound 45, N-((S)-1-(3-acetamidophenyl)-2-((S)-3-hydroxypyrrolidin-1-yl)ethyl)-N-methyl-2-((8-(methylsulfonamido)quinolin-5-yl)oxy) acetamide]",14 nM,0.066 nM,
CN(C(=O)COc1cccc2ncccc12)[C@H](CN1CC[C@H](O)C1)c1cccc(NS(C)(=O)=O)c1 [Compound 46],9.5 nM,0.042 nM,
"CN(C)c1cccc([C@@H](CN2CC[C@H](O)C2)N(C)C(=O)COc2ccc(NS(C)(=O)=O)c3ncccc23)c1 [Compound 47, N-((S)-1-(3-dimethylaminophenyl)-2-((S)-3-hydroxypyrrolidin-1-yl)ethyl)-N-methyl-2-((8-(methylsulfonamido)quinolin-5-yl)oxy) acetamide]",88 nM,0.691 nM,
"COc1cccc([C@@H](CN2CC[C@H](O)C2)N(C)C(=O)COc2ccc(NS(C)(=O)=O)c3ncccc23)c1 [Compound 49, N-((S)-2-((S)-3-hydroxypyrrolidin-1-yl)-1-(3-methoxyphenyl)ethyl)-N-methyl-2-((8-(methylsulfonamido)quinolin-5-yl)oxy) acetamide]",1.9 nM,0.032 nM,
CCOC(=O)COc1cccc([C@@H](CN2CC[C@H](O)C2)N(C)C(=O)COc2ccc(NS(C)(=O)=O)c3ncccc23)c1 [Compound 50],221 nM,0.001 nM,
CN(C(=O)COc1ccc(NS(C)(=O)=O)c2ncccc12)[C@H](CN1CC[C@H](O)C1)c1cccc(OCC(=O)O)c1 [Compound 51],,,IC50 (kappa opioid receptor [2]; [5]): 16 nM; EC50 (kappa opioid receptor [3]; [6]): 0.11 nM
"CN(C(=O)COc1ccc(NS(C)(=O)=O)c2ncccc12)[C@H](CN1CC[C@H](O)C1)c1cccc(F)c1 [Compound 52, N-((S)-1-(3-fluorophenyl)-2-((S)-3-hydroxypyrrolidin-1-yl)ethyl)-N-methyl-2-((8-(methylsulfonamido)quinolin-5-yl)oxy) acetamide]",21 nM,0.18 nM,
"CN(C(=O)COc1ccc(NS(C)(=O)=O)c2ncccc12)[C@H](CN1CC[C@H](O)C1)c1cccc(C(F)(F)F)c1 [Compound 53, N-((S)-2-((S)-3-hydroxypyrrolidin-1-yl)-1-(3-(trifluoromethyl)phenyl)ethyl)-N-methyl-2-((8-(methylsulfonamido)quinolin-5-yl)oxy) acetamide]",73 nM,0.68 nM,
"Cc1cccc([C@@H](CN2CC[C@H](O)C2)N(C)C(=O)COc2ccc(NS(C)(=O)=O)c3ncccc23)c1 [Compound 54, N-((S)-2-((S)-3-hydroxypyrrolidin-1-yl)-1-(3-methyl)ethyl)-N-methyl-2-((8-(methylsulfonamido)quinolin-5-yl)oxy)acetamide]",14 nM,0.098 nM,
"CN(C(=O)COc1ccc2ccoc2c1)[C@H](CN1CC[C@H](O)C1)c1cccc([N+](=O)[O-])c1 [Compound 55, 2-(benzofuran-6-yloxy)-N-((S)-2-((S)-3-hydroxypyrrolidin-1-yl)-1-(3-nitrophenyl)ethyl)-N-methylacetamide]",307 nM,1.92 nM,
"CN(C(=O)COc1ccc2ccoc2c1)[C@H](CN1CC[C@H](O)C1)c1cccc(NS(C)(=O)=O)c1 [Compound 56, 2-(benzofuran-6-yloxy)-N-((S)-2-((S)-3-hydroxypyrrolidin-1-yl)-1-(3-(methylsulfonamido)phenyl)ethyl)-N-methylacetamide]",88 nM,1.11 nM,
"COC(=O)Nc1cccc([C@@H](CN2CC[C@H](O)C2)N(C)C(=O)COc2ccc3c(c2)OCO3)c1 [Compound 58, Methyl-(3-((S)-1-(2-(benzo[d][1,3]dioxol-5-yloxy)-N-methylacetamido)-2-((S)-3-hydroxypyrrolidin-1-yl)-ethyl)phenyl)carbamate]",9.8 nM,0.098 nM,
"N-((S)-2-((S)-3-hydroxypyrrolidin-1-yl)-1-phenylethyl)- N-methyl-2-((8-(pyrrolidine-1-sulfonamido)-1,2,3,4- tetrahydroquinolin-5-yloxy)acetamide [Compound 39]",,,IC50 (kappa opioid receptor [2]; [5]): 0.95 nM; EC50 (kappa opioid receptor [3]; [6]): 0.088 nM
"N-((S)-2-((S)-3-hydroxypyrrolidin-1-yl)-1-phenylethyl)- N-methyl-2-((8-sulfonamido)-1,2,3,4-tetrahydroquinolin- 5-yloxy)acetamide [Compound 37]",,,IC50 (kappa opioid receptor [2]; [5]): 0.3 nM; EC50 (kappa opioid receptor [3]; [6]): 0.013 nM; In-vivo ED50 (ICR mice [4]): 6.2 mg/kg
N-((S)-2-((S)-3-hydroxypyrrolidin-1-yl)-1-phenylethyl)- N-methyl-2-((8-sulfonamido)quinolin-5-yloxy)acetamide [Compound 36],,,IC50 (kappa opioid receptor [2]; [5]): 7.8 nM; EC50 (kappa opioid receptor [3]; [6]): 1.12 nM
